# Measurements taken from ChEMBL document CHEMBL1148995, “Antitumor agents from bohemic acid complex, VI. Schaunardimycin” (J Nat Prod, 1984).
# Columns and labels:
# [1] = system: L1210; experiment: Antitumor activity against mouse L1210 cells implanted in CDF1 mouse assessed as median survival time at 12.8 mg/kg, ip single dose on day 1; format: functional; details: route intraperitoneal
# [2] = system: L1210; experiment: Antitumor activity against mouse L1210 cells implanted in CDF1 mouse assessed as median survival time at 6.4 mg/kg, ip single dose on day 1; format: functional; details: route intraperitoneal
# [3] = system: L1210; experiment: Antitumor activity against mouse L1210 cells implanted in CDF1 mouse assessed as median survival time at 3.2 mg/kg, ip single dose on day 1; format: functional; details: route intraperitoneal
# [4] = system: L1210; experiment: Antitumor activity against mouse L1210 cells implanted in CDF1 mouse assessed as median survival time at 1.6 mg/kg, ip single dose on day 1; format: functional; details: route intraperitoneal
# [5] = system: L1210; experiment: Antitumor activity against mouse L1210 cells implanted in CDF1 mouse assessed as median survival time at 0.8 mg/kg, ip single dose on day 1; format: functional; details: route intraperitoneal
# [6] = system: L1210; experiment: Antitumor activity against mouse L1210 cells implanted in CDF1 mouse assessed as median survival time at 0.4 mg/kg, ip single dose on day 1; format: functional; details: route intraperitoneal
# [7] = system: L1210; experiment: Antitumor activity against mouse L1210 cells implanted in CDF1 mouse assessed as median survival time at 0.2 mg/kg, ip single dose on day 1; format: functional; details: route intraperitoneal
# [8] = system: L1210; experiment: Antitumor activity against mouse L1210 cells implanted in CDF1 mouse assessed as median survival time at 6.4 mg/kg, ip qd for 1 to 5 days; format: functional; details: route intraperitoneal
# [9] = system: L1210; experiment: Antitumor activity against mouse L1210 cells implanted in CDF1 mouse assessed as median survival time at 3.2 mg/kg, ip qd for 1 to 5 days; format: functional; details: route intraperitoneal
# [10] = system: L1210; experiment: Antitumor activity against mouse L1210 cells implanted in CDF1 mouse assessed as median survival time at 1.6 mg/kg, ip qd for 1 to 5 days; format: functional; details: route intraperitoneal
# [11] = system: L1210; experiment: Antitumor activity against mouse L1210 cells implanted in CDF1 mouse assessed as median survival time at 0.8 mg/kg, ip qd for 1 to 5 days; format: functional; details: route intraperitoneal
# [12] = system: L1210; experiment: Antitumor activity against mouse L1210 cells implanted in CDF1 mouse assessed as median survival time at 0.4 mg/kg, ip qd for 1 to 5 days; format: functional; details: route intraperitoneal
# [13] = system: L1210; experiment: Antitumor activity against mouse L1210 cells implanted in CDF1 mouse assessed as median survival time at 0.2 mg/kg, ip qd for 1 to 5 days; format: functional; details: route intraperitoneal
# [14] = system: L1210; experiment: Antitumor activity against mouse L1210 cells implanted in CDF1 mouse at 12.8 mg/kg, ip single dose on day 1 relative to control; format: functional; details: route intraperitoneal
# [15] = system: L1210; experiment: Antitumor activity against mouse L1210 cells implanted in CDF1 mouse at 6.4 mg/kg, ip single dose on day 1 relative to control; format: functional; details: route intraperitoneal
# [16] = system: L1210; experiment: Antitumor activity against mouse L1210 cells implanted in CDF1 mouse at 3.2 mg/kg, ip single dose on day 1 relative to control; format: functional; details: route intraperitoneal
# [17] = system: L1210; experiment: Antitumor activity against mouse L1210 cells implanted in CDF1 mouse at 1.6 mg/kg, ip single dose on day 1 relative to control; format: functional; details: route intraperitoneal
# [18] = system: L1210; experiment: Antitumor activity against mouse L1210 cells implanted in CDF1 mouse at 0.8 mg/kg, ip single dose on day 1 relative to control; format: functional; details: route intraperitoneal
# [19] = system: L1210; experiment: Antitumor activity against mouse L1210 cells implanted in CDF1 mouse at 0.4 mg/kg, ip single dose on day 1 relative to control; format: functional; details: route intraperitoneal
# [20] = system: L1210; experiment: Antitumor activity against mouse L1210 cells implanted in CDF1 mouse at 0.2 mg/kg, ip single dose on day 1 relative to control; format: functional; details: route intraperitoneal
# [21] = system: L1210; experiment: Antitumor activity against mouse L1210 cells implanted in CDF1 mouse at 6.4 mg/kg, ip qd for 1 to 5 days relative to control; format: functional; details: route intraperitoneal
# [22] = system: L1210; experiment: Antitumor activity against mouse L1210 cells implanted in CDF1 mouse at 3.2 mg/kg, ip qd for 1 to 5 days relative to control; format: functional; details: route intraperitoneal
# [23] = system: L1210; experiment: Antitumor activity against mouse L1210 cells implanted in CDF1 mouse at 1.6 mg/kg, ip qd for 1 to 5 days relative to control; format: functional; details: route intraperitoneal
# [24] = system: L1210; experiment: Antitumor activity against mouse L1210 cells implanted in CDF1 mouse at 0.8 mg/kg, ip qd for 1 to 5 days relative to control; format: functional; details: route intraperitoneal
# [25] = system: L1210; experiment: Antitumor activity against mouse L1210 cells implanted in CDF1 mouse at 0.4 mg/kg, ip qd for 1 to 5 days relative to control; format: functional; details: route intraperitoneal
# [26] = system: Mus musculus; experiment: Toxicity in mouse L1210 cells implanted CDF1 mouse assessed as average weight gain at 12.8 mg/kg, ip single dose on day 1; format: organism-based; design: dose 12.8 mg/kg, route intraperitoneal; details: in vivo
# [27] = system: Mus musculus; experiment: Toxicity in mouse L1210 cells implanted CDF1 mouse assessed as average weight gain at 6.4 mg/kg, ip single dose on day 1; format: organism-based; design: dose 6.4 mg/kg, route intraperitoneal; details: in vivo
# [28] = system: Mus musculus; experiment: Toxicity in mouse L1210 cells implanted CDF1 mouse assessed as average weight gain at 3.2 mg/kg, ip single dose on day 1; format: organism-based; design: dose 3.2 mg/kg, route intraperitoneal; details: in vivo
# [29] = system: Mus musculus; experiment: Toxicity in mouse L1210 cells implanted CDF1 mouse assessed as average weight gain at 1.6 mg/kg, ip single dose on day 1; format: organism-based; design: dose 1.6 mg/kg, route intraperitoneal; details: in vivo
# [30] = system: Mus musculus; experiment: Toxicity in mouse L1210 cells implanted CDF1 mouse assessed as average weight gain at 0.8 mg/kg, ip single dose on day 1; format: organism-based; design: dose 0.8 mg/kg, route intraperitoneal; details: in vivo
# [31] = system: Mus musculus; experiment: Toxicity in mouse L1210 cells implanted CDF1 mouse assessed as average weight gain at 0.4 mg/kg, ip single dose on day 1; format: organism-based; design: dose 0.4 mg/kg, route intraperitoneal; details: in vivo
# [32] = system: Mus musculus; experiment: Toxicity in mouse L1210 cells implanted CDF1 mouse assessed as average weight gain at 0.2 mg/kg, ip single dose on day 1; format: organism-based; design: dose 0.2 mg/kg, route intraperitoneal; details: in vivo
# [33] = system: Mus musculus; experiment: Toxicity in mouse L1210 cells implanted CDF1 mouse assessed as average weight gain at 6.4 mg/kg, ip qd for 1 to 5 days; format: organism-based; design: dose 6.4 mg/kg, route intraperitoneal; details: in vivo
# [34] = system: Mus musculus; experiment: Toxicity in mouse L1210 cells implanted CDF1 mouse assessed as average weight gain at 3.2 mg/kg, ip qd for 1 to 5 days; format: organism-based; design: dose 3.2 mg/kg, route intraperitoneal; details: in vivo
# [35] = system: Mus musculus; experiment: Toxicity in mouse L1210 cells implanted CDF1 mouse assessed as average weight gain at 1.6 mg/kg, ip qd for 1 to 5 days; format: organism-based; design: dose 1.6 mg/kg, route intraperitoneal; details: in vivo
# [36] = system: Mus musculus; experiment: Toxicity in mouse L1210 cells implanted CDF1 mouse assessed as average weight gain at 0.8 mg/kg, ip qd for 1 to 5 days; format: organism-based; design: dose 0.8 mg/kg, route intraperitoneal; details: in vivo
# [37] = system: Mus musculus; experiment: Toxicity in mouse L1210 cells implanted CDF1 mouse assessed as average weight gain at 0.4 mg/kg, ip qd for 1 to 5 days; format: organism-based; design: dose 0.4 mg/kg, route intraperitoneal; details: in vivo
# [38] = system: Mus musculus; experiment: Toxicity in mouse L1210 cells implanted CDF1 mouse assessed as average weight gain at 0.2 mg/kg, ip qd for 1 to 5 days; format: organism-based; design: dose 0.2 mg/kg, route intraperitoneal; details: in vivo
# [39] = system: Mus musculus; experiment: Toxicity in mouse L1210 cells implanted CDF1 mouse assessed as survivors on day 5 at 12.8 mg/kg, ip single dose on day 1; format: organism-based; design: dose 12.8 mg/kg, route intraperitoneal; details: in vivo
# [40] = system: Mus musculus; experiment: Toxicity in mouse L1210 cells implanted CDF1 mouse assessed as survivors on day 5 at 6.4 mg/kg, ip single dose on day 1; format: organism-based; design: dose 6.4 mg/kg, route intraperitoneal; details: in vivo
# [41] = system: Mus musculus; experiment: Toxicity in mouse L1210 cells implanted CDF1 mouse assessed as survivors on day 5 at 3.2 mg/kg, ip single dose on day 1; format: organism-based; design: dose 3.2 mg/kg, route intraperitoneal; details: in vivo
# [42] = system: Mus musculus; experiment: Toxicity in mouse L1210 cells implanted CDF1 mouse assessed as survivors on day 5 at 1.6 mg/kg, ip single dose on day 1; format: organism-based; design: dose 1.6 mg/kg, route intraperitoneal; details: in vivo
# [43] = system: Mus musculus; experiment: Toxicity in mouse L1210 cells implanted CDF1 mouse assessed as survivors on day 5 at 0.8 mg/kg, ip single dose on day 1; format: organism-based; design: dose 0.8 mg/kg, route intraperitoneal; details: in vivo
# [44] = system: Mus musculus; experiment: Toxicity in mouse L1210 cells implanted CDF1 mouse assessed as survivors on day 5 at 0.4 mg/kg, ip single dose on day 1; format: organism-based; design: dose 0.4 mg/kg, route intraperitoneal; details: in vivo
# [45] = system: Mus musculus; experiment: Toxicity in mouse L1210 cells implanted CDF1 mouse assessed as survivors on day 5 at 3.2 mg/kg, ip qd for 1 to 5 days; format: organism-based; design: dose 3.2 mg/kg, route intraperitoneal; details: in vivo
# [46] = system: Mus musculus; experiment: Toxicity in mouse L1210 cells implanted CDF1 mouse assessed as survivors on day 5 at 1.6 mg/kg, ip qd for 1 to 5 days; format: organism-based; design: dose 1.6 mg/kg, route intraperitoneal; details: in vivo
# [47] = system: Mus musculus; experiment: Toxicity in mouse L1210 cells implanted CDF1 mouse assessed as survivors on day 5 at 0.8 mg/kg, ip qd for 1 to 5 days; format: organism-based; design: dose 0.8 mg/kg, route intraperitoneal; details: in vivo
# [48] = system: Mus musculus; experiment: Toxicity in mouse L1210 cells implanted CDF1 mouse assessed as survivors on day 5 at 0.4 mg/kg, ip qd for 1 to 5 days; format: organism-based; design: dose 0.4 mg/kg, route intraperitoneal; details: in vivo
# [49] = system: Mus musculus; experiment: Toxicity in mouse L1210 cells implanted CDF1 mouse assessed as survivors on day 5 at 0.2 mg/kg, ip qd for 1 to 5 days; format: organism-based; design: dose 0.2 mg/kg, route intraperitoneal; details: in vivo
# [50] = system: Mus musculus; experiment: Toxicity in mouse L1210 cells implanted CDF1 mouse assessed as median survival time at 25.6 mg/kg, ip single dose on day 1; format: organism-based; design: dose 25.6 mg/kg, route intraperitoneal; details: in vivo
# [51] = system: L1210; experiment: Antitumor activity against mouse L1210 cells implanted in CDF1 mouse at 0.2 mg/kg, ip qd for 1 to 5 days relative to control; format: functional; details: route intraperitoneal
structure (smiles),measurement,setting,value
CC[C@@]1(O)C[C@H](O[C@H]2C[C@H](N(C)C)[C@H](O[C@H]3C[C@H](O)[C@H](O)[C@H](C)O3)[C@H](C)O2)c2c(cc3c(c2O)C(=O)c2c(O)ccc(O)c2C3=O)[C@H]1C(=O)OC [MUSETTAMYCIN],MST,[1],10 days
same,MST,[2],9.5 days
same,MST,[3],8 days
same,MST,[4],8 days
same,MST,[5],7 days
same,MST,[6],6.5 days
same,MST,[7],6 days
same,MST,[8],6 days
same,MST,[9],10 days
same,MST,[10],9.5 days
same,MST,[11],8 days
same,MST,[12],7 days
same,MST,[13],6.5 days
same,T/C,[14],167%
same,T/C,[15],158%
same,T/C,[16],133%
same,T/C,[17],133%
same,T/C,[18],117%
same,T/C,[19],108%
same,T/C,[20],100%
same,T/C,[21],100%
same,T/C,[22],167%
same,T/C,[23],158%
same,T/C,[24],133%
same,T/C,[25],117%
same,Activity,[26],-2.3 g
same,Activity,[27],0.3 g
same,Activity,[28],0.8 g
same,weight gain,[29],0.7 g
same,weight gain,[30],2.6 g
same,weight gain,[31],2.7 g
same,weight gain,[32],2.7 g
same,Activity,[33],-1.9 g
same,Activity,[34],-1.2 g
same,weight gain,[35],0.3 g
same,weight gain,[36],1.4 g
same,weight gain,[37],2.3 g
same,weight gain,[38],2.8 g
same,Activity,[39],Active
same,Activity,[40],Active
same,Activity,[41],Active
same,Activity,[42],Active
same,Activity,[43],Active
same,Activity,[44],Active
same,Activity,[45],Active
same,Activity,[46],Active
same,Activity,[47],Active
same,Activity,[48],Active
same,Activity,[49],Active
same,Activity,[50],Toxic
same,T/C,[51],117%
